Results: ChEMBL document CHEMBL5465560, “Selectivity Literature for EUbOPEN Chemogenomic Library” (2024)

Key:
[1] = target: Death-associated protein kinase 2 (Homo sapiens) (UniProt Q9UIK4); experiment: Selectivity interaction (KinomeScan (DiscoverX)) EUB0000618a DAPK2; conditions: at 10 µM
[2] = target: Tyrosine-protein kinase JAK1 (Homo sapiens, UniProt P23458); experiment: Selectivity interaction (KinomeScan (DiscoverX)) EUB0000618a JAK1; conditions: at 10 µM
[3] = target: Platelet-derived growth factor receptor alpha (Homo sapiens, UniProt P16234); experiment: Selectivity interaction (KinomeScan (DiscoverX)) EUB0000607a PDGFRA; conditions: at 10 µM
[4] = target: Leukocyte tyrosine kinase receptor (Homo sapiens, UniProt P29376); experiment: Selectivity interaction (KinomeScan (DiscoverX)) EUB0000607a LTK; conditions: at 10 µM
[5] = target: Putative phosphatidylinositol 4-kinase alpha-like protein P2 (Homo sapiens) (UniProt A4QPH2); experiment: Selectivity interaction (ActivX KiNativ screen (ex vivo kinase selectivity in human PBMCs)) EUB0001619a PI4KAP2; format: cell-based; conditions: PBMC, at 1 µM
[6] = target: Bromodomain-containing protein 4 (Homo sapiens, UniProt O60885); experiment: Selectivity interaction (Kinase panel (DSF assay)) EUB0001558a BRD4
[7] = system: Epidermal growth factor receptor (Homo sapiens), P00533 [UNDEFINED MUTATION]; experiment: Selectivity interaction (KinomeScan (DiscoverX)) EUB0000045b EGFR; conditions: at 10 µM
[8] = target: Vascular endothelial growth factor receptor 1 (Homo sapiens) (UniProt P17948); conditions: at 10 µM
[9] = target: T1, Serine/threonine-protein kinase D3 (Homo sapiens) (UniProt O94806); experiment: Selectivity interaction (ProQinase) EUB0000171b PRKD3
T1 sequence (whole entry): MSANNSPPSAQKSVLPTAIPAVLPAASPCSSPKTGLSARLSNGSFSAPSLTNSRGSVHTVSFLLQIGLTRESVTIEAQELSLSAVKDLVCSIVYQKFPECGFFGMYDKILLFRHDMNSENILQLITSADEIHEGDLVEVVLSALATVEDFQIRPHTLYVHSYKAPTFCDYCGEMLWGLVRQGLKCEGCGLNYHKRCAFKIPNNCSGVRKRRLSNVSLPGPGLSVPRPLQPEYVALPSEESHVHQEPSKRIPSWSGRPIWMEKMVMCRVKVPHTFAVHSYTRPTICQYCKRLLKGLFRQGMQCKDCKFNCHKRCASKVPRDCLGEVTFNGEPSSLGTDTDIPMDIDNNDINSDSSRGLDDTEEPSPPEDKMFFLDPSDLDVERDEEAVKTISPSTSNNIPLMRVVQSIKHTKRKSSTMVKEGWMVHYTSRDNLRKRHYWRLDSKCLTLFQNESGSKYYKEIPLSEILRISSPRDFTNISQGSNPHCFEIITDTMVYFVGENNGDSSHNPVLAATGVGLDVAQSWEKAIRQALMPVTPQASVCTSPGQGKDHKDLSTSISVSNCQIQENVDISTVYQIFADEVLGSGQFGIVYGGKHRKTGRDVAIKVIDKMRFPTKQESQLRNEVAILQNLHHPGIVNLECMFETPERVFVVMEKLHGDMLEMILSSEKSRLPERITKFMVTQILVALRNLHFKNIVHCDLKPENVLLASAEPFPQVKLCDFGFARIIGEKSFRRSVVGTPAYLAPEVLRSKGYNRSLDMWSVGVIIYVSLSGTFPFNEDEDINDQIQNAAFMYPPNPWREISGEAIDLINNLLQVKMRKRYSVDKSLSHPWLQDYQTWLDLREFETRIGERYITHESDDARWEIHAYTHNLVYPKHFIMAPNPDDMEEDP

[10] = target: Mitogen-activated protein kinase 14 (Homo sapiens, UniProt Q16539); experiment: Selectivity interaction (Kinase panel (33PanQinase(R) Activity Assay)) EUB0000877a MAPK14
[11] = target: Microtubule-associated serine/threonine-protein kinase 1 (Homo sapiens) (UniProt Q9Y2H9); experiment: Selectivity interaction (KinomeScan (DiscoverX)) EUB0000666a MAST1; conditions: at 10 µM
[12] = target: T2, Phosphatidylinositol 5-phosphate 4-kinase type-2 gamma (Homo sapiens) (UniProt Q8TBX8); experiment: Selectivity interaction (KinomeScan (DiscoverX)) EUB0000666a PIP4K2C; conditions: at 10 µM
T2 sequence (whole entry): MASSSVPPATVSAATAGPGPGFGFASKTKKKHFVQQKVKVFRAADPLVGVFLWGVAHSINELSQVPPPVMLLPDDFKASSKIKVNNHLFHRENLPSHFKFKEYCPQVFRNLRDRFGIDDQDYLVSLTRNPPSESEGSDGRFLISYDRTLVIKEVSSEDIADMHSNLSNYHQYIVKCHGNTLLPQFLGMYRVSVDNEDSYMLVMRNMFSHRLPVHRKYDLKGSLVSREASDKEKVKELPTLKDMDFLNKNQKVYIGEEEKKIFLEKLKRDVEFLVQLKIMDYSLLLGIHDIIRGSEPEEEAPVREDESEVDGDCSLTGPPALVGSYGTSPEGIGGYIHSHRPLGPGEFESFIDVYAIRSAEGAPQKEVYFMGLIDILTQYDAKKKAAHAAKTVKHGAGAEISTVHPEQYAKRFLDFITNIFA

[13] = target: Cyclin-dependent kinase 8 (Homo sapiens, UniProt P49336); experiment: Selectivity interaction (KinomeScan (DiscoverX)) EUB0000092b CDK8; conditions: at 10 µM
[14] = target: T3, Cytoplasmic tyrosine-protein kinase BMX (Homo sapiens) (UniProt P51813); experiment: Selectivity interaction (Kinase panel (Z-LYTE Assay)) EUB0001632a BMX; conditions: at 10 µM
T3 sequence (whole entry): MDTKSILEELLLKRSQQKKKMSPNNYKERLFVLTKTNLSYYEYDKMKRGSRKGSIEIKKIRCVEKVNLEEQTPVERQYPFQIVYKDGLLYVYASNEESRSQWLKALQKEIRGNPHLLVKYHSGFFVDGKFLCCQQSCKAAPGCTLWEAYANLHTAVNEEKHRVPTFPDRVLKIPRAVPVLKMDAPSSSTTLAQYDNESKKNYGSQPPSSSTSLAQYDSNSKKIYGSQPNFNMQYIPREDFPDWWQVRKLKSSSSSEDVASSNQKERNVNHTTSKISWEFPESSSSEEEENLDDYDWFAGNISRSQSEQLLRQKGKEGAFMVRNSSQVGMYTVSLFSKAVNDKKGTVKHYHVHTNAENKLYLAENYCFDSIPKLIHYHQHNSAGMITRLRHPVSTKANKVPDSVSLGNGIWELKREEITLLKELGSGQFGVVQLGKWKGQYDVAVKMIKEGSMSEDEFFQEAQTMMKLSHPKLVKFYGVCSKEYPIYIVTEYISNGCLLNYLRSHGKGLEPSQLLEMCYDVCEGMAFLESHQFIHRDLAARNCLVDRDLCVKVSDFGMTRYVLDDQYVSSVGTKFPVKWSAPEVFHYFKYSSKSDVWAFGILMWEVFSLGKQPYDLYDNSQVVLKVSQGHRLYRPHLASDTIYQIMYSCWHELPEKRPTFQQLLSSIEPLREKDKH

[15] = target: Phosphatidylinositol 4,5-bisphosphate 3-kinase catalytic subunit beta isoform (Homo sapiens) (UniProt P42338); experiment: Selectivity interaction (Adapta Assay) EUB0001632a PIK3CB; conditions: at 10 µM

Chain of Tyrosine-protein kinase JAK1 (P23458 whole entry): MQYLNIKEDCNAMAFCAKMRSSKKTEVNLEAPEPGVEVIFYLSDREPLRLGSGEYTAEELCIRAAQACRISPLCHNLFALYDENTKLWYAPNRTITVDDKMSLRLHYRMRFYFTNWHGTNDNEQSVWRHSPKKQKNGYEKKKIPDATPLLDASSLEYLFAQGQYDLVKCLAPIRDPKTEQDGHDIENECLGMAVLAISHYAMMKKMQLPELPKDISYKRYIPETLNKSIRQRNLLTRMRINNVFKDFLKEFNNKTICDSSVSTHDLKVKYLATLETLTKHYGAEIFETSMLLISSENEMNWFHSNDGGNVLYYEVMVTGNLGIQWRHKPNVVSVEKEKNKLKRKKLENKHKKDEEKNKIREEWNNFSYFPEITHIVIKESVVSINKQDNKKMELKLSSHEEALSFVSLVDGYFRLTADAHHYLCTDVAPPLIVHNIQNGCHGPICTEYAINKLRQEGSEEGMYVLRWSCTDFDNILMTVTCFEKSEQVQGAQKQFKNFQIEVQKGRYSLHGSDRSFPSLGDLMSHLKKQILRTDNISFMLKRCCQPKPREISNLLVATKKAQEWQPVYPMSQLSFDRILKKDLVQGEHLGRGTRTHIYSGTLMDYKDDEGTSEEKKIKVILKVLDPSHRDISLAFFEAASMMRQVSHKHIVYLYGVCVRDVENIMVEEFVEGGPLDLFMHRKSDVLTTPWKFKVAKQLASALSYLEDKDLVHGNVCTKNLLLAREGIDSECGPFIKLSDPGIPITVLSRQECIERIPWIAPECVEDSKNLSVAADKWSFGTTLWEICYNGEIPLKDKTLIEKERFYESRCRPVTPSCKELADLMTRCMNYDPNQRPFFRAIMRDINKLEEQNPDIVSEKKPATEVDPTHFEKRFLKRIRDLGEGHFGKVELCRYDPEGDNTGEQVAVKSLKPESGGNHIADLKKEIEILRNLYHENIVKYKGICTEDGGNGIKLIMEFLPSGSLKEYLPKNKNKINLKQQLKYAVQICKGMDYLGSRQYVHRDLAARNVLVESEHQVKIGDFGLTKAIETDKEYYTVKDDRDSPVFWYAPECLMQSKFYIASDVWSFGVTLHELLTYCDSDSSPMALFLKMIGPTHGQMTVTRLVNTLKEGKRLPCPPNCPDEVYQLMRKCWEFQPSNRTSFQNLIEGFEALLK
Chain of Platelet-derived growth factor receptor alpha (P16234 whole entry): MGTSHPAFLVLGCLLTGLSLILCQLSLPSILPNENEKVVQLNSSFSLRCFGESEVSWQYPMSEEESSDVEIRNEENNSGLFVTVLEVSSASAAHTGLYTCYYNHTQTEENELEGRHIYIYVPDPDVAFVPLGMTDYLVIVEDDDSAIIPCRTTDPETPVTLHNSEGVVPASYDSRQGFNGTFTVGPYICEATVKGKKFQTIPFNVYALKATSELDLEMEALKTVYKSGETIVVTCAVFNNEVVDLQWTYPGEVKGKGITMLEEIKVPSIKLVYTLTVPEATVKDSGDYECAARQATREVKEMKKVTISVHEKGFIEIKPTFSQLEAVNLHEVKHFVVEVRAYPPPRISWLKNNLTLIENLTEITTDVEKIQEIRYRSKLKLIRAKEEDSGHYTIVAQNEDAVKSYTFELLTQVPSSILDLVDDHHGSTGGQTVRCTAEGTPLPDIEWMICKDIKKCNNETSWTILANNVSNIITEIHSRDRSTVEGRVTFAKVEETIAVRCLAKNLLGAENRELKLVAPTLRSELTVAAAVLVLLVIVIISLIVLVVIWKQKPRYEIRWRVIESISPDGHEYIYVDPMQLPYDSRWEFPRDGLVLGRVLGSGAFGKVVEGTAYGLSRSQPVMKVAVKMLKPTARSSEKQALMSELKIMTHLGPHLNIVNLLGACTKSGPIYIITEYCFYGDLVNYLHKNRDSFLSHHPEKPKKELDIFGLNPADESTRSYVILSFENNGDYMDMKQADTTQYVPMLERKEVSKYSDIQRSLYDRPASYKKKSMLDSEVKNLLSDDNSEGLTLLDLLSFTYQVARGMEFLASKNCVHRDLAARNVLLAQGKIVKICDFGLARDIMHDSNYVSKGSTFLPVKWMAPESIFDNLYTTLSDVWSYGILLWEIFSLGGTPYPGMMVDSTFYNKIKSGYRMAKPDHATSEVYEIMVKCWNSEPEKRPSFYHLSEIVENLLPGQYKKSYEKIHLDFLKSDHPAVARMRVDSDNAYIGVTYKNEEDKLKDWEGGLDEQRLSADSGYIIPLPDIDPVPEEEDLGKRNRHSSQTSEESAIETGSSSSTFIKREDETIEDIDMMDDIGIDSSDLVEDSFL
Chain of Cyclin-dependent kinase 8 (P49336 whole entry): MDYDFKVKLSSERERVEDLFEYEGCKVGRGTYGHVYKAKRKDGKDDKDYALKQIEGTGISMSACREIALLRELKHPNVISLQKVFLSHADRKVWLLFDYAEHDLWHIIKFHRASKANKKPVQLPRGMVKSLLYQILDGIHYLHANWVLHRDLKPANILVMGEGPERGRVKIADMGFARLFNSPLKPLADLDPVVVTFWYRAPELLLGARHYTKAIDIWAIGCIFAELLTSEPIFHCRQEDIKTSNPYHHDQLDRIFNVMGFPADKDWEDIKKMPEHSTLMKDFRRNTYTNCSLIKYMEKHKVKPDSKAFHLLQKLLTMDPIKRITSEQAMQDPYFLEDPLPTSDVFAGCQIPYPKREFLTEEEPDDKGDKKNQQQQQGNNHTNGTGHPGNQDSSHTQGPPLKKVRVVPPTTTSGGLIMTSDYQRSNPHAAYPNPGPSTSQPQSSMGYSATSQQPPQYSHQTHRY
Chain of Vascular endothelial growth factor receptor 1 (Homo sapiens) (P17948 whole entry): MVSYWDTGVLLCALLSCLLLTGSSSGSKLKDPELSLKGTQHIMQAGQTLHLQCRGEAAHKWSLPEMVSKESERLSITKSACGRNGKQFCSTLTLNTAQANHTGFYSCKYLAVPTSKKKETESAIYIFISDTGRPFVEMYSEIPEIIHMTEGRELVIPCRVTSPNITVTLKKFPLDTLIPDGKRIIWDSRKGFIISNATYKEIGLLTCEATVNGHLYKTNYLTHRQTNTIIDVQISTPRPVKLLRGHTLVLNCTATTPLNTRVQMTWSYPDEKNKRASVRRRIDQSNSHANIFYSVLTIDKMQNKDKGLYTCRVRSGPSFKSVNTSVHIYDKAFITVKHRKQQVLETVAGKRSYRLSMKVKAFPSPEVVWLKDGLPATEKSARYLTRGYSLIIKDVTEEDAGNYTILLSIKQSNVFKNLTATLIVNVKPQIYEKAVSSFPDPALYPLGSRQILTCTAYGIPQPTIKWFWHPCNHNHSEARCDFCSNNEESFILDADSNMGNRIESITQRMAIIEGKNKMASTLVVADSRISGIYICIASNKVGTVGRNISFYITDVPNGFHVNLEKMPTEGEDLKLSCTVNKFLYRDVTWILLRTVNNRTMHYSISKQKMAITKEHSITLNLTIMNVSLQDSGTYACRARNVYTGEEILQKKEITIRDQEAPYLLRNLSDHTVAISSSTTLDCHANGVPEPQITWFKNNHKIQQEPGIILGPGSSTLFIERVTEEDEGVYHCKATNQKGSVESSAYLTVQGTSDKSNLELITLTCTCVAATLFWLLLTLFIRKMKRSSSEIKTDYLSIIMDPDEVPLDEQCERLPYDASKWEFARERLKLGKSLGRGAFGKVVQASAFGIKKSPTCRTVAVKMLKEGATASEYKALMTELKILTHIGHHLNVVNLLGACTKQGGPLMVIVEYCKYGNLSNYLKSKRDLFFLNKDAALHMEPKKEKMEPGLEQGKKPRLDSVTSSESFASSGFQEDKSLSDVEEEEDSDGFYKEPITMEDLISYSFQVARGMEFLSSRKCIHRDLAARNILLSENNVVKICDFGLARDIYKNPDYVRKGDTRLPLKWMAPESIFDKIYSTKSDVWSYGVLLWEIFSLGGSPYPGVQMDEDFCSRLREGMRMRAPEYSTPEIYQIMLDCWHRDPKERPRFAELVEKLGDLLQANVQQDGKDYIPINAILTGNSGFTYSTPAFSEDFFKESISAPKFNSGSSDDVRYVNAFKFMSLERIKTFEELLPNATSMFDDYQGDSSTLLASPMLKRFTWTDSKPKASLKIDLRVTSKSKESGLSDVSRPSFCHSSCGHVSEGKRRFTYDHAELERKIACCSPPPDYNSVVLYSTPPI
Chain of Mitogen-activated protein kinase 14 (Q16539 whole entry): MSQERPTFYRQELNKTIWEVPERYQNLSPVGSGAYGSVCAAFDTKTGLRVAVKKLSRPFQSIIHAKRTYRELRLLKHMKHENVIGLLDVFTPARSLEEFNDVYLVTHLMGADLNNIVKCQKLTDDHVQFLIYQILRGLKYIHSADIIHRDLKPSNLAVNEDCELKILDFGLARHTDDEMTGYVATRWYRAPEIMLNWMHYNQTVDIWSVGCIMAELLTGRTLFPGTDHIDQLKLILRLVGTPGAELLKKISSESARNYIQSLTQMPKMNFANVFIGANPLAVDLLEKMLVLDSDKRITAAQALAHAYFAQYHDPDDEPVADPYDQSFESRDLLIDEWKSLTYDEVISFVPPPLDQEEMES
Chain of Death-associated protein kinase 2 (Homo sapiens) (Q9UIK4 whole entry, looked up): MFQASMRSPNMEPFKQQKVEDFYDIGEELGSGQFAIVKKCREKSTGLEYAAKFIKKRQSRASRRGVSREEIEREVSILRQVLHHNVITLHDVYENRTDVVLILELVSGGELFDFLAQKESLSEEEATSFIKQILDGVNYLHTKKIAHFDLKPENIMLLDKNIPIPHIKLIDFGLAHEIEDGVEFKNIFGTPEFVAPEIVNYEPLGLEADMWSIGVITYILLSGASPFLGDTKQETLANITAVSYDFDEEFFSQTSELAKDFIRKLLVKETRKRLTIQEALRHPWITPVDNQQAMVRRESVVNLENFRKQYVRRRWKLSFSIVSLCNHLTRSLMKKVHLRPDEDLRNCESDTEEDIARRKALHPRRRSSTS

SMILES: O[C@H]1CC[C@H](Nc2ncc3nc(Nc4c(F)cc(F)cc4F)n([C@H]4CCOC4)c3n2)CC1
- % of control [1]: 100%
- % of control [2]: 70%

SMILES: CNC(=O)Nc1ccc(-c2nc(N3CC4CCC(C3)O4)c3cnn(C4CCC5(CC4)OCCO5)c3n2)cc1
- % of control [3]: 80%
- % of control [4]: 68%

SMILES: N#Cc1cccc(-c2c[nH]c3ncnc(N4CCOCC4)c23)c1
- % of inhibition [5]: 6%

SMILES: CC(C)(O)[C@H](F)CN1Cc2cc(NC(=O)c3cnn4cccnc34)c(N3CCOCC3)cc2C1=O
- dTM [6]: 0.4 K

SMILES: C=CC(=O)Nc1cc(-n2c(=O)ccc3cnc4ccc(-c5ccc(NS(C)(=O)=O)cc5)cc4c32)ccc1C
- % of control [7]: 62%

SMILES: Cc1cc([C@@H](C)Nc2ccccc2C(=O)O)c2nc(N3CCOCC3)cc(=O)n2c1 [AZD-6482]
- % of control [8]: 83%

SMILES: C=CC(=O)Nc1cccc(C(=O)Nc2ccc(Nc3cc(-c4[nH]c(SC)nc4C)ccn3)cc2)c1
- % of control ([9]; at 1 µM): 44%
- % of control ([9]; at 5 µM): 15%

SMILES: CCC(=O)N1CC[C@H](Nc2ncnc3c2CN(c2cnc(OC)c(C(F)(F)F)c2)CC3)C1 [LENIOLISIB]
- IC50 [10]: > 10 µM

SMILES: O=C(NOC[C@H](O)CO)c1ccc(F)c(F)c1Nc1ccc(I)cc1F
- % of control [11]: 100%
- % of control [12]: 100%

SMILES: CCC(=O)N1CCN(c2ccc(-n3c(=O)ccc4cnc5ccc(-c6cnc7ccccc7c6)cc5c43)cc2C(F)(F)F)CC1
- % of control [13]: 4.6%

SMILES: Cn1cc(-n2cnc3c(NCc4nc5cc(Cl)c(Cl)cc5[nH]4)nc(N4CCOCC4)nc32)cn1
- % of control [14]: 2.67%
- % of inhibition [15]: 11.6%
